For one assay, the target named is T1, renin in human plasma (Homo sapiens, UniProt P00797).
T1 construct: host or cells: recombinant enzyme added to human plasma from 10 normal donors
T1 sequence (P00797 67-406): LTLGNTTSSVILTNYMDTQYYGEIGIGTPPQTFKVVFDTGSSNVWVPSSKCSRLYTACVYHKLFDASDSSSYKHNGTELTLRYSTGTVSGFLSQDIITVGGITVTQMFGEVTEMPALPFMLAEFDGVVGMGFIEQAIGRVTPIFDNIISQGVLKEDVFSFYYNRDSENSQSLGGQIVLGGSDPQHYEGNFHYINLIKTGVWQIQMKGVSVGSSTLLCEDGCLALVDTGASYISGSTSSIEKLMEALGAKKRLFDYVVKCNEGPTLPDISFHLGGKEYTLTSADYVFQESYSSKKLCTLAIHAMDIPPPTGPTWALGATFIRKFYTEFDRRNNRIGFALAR
Put plainly: Inhibition of renin in human plasma (enzymatic in vitro assay, Ang I detected by EIA). The class given is biochemical. The settings on record: human plasma from 10 normal donors; human recombinant renin 3 pM; 37° C. for 2 h. The procedure: Inhibition of Renin in Human Plasma
The enzymatic in vitro assay was performed in 384-well polypropylene plates (Nunc). The assay buffer consisted of PBS (Gibco BRL) including 1 mM EDTA and 0.1% BSA. The reaction mixture was composed of 80 μL per well of human plasma, enzyme, Ang I-antibodies mix and 5 μL of renin inhibitors in DMSO. The human plasma mix was premixed at 4° C. and consists of • human plasma from 10 normal donors • human recombinant renin (3 pM) • Ang I-antibodies. The mixtures were then incubated at 37° C. for 2 h.
To determine the enzymatic activity and its inhibition, the accumulated Ang I was detected by an enzyme immunoassay (EIA) in 384-well plates (Nunc). 10 μL of the reaction mixture or standards were transferred to immuno plates which were previously coated with a covalent complex of Ang I and bovine serum albumin (Ang I-BSA). 70 μL assay buffer were added and the plates were incubated at 4° C. overnight. The plates were washed 3 times with PBS including 0.01% Tween 20, and then incubated for 2 h at RT with an anti rabbit-peroxidase coupled antibody (WA 934, Amersham).

The target of the next assay is T2, human recombinant renin (Homo sapiens, UniProt P00797).
T2 sequence (P00797 67-406): T1 sequence (P00797 67-406)
Put plainly: Inhibition of human recombinant renin (enzymatic in vitro assay in buffer, Ang I detected by EIA). Type of assay: biochemical. The settings on record: assay buffer PBS, 1 mM EDTA, 0.1% BSA; human recombinant renin 40 pM; 37° C. for 3 h. The protocol: Inhibition of Human Recombinant Renin
The enzymatic in vitro assay was performed in 384-well polypropylene plates (Nunc). The assay buffer consisted of PBS (Gibco BRL) including 1 mM EDTA and 0.1% BSA. The reaction mixture were composed of 47.5 μL per well of an enzyme mix and 2.5 μL of renin inhibitors in DMSO. The enzyme mix was premixed at 4° C. and consists of the following components: • human recombinant renin (40 pM) • synthetic human angiotensin(1-14) (0.5 μM) • hydroxyquinoline sulfate (1 mM) The mixtures were then incubated at 37° C. for 3 h. The enzyme reaction was stopped by placing the reaction plate on wet ice.
To determine the enzymatic activity and its inhibition, the accumulated Ang I was detected by an enzyme immunoassay (EIA) in 384-well plates (Nunc). 5 μL of the reaction mixture or standards were transferred to immuno plates which were previously coated with a covalent complex of Ang I and bovine serum albumin (Ang I-BSA). 75 μL of Ang I-antibodies in assay buffer above including 0.01% Tween 20 were added and the plates were incubated at 4° C. overnight.
An alternative protocol could be used by stopping the enzymatic reaction with 0.02N final concentration of HCl. 5 μL of the reaction mixture or standards were transferred to immuno plates and 75 μL of Ang I-antibodies in assay buffer above including 0.01% Tween 20 were added and the plates were incubate at RT for 4 h. […]

Turning to `COCCCc1cc(CN(C(=O)[C@H]2CNCC[C@@H]2c2ccc(OCCOc3c(Cl)cc(C)cc3Cl)nc2)C2CC2)cc(OCCOC)c1` [Example 2, (3R,4S)-N-Cyclopropyl-4-{6-[2-(2,6-dichloro-4-methylphenoxy)ethoxy]pyridin-3-yl}-N-[3-(2-methoxyethoxy)-5-(3-methoxypropyl)benzyl]piperidine-3-carboxamide], the concentration for half-maximal inhibition (IC50) on renin in human plasma was found to be 6 nM; on human recombinant renin it was 0.022 nM.

Regarding `COCCCc1cc(CN(C(=O)[C@H]2CNCC[C@@H]2c2ccc(OCCOc3c(Cl)cc(C)cc3Cl)cc2)C2CC2)cc(OC[C@@H]2C[C@H]2CO)c1` [Example 8], the IC50 on renin in human plasma was found to be 2.6 nM; at human recombinant renin, 0.036 nM.

Values taken from US8076359B2, “Renin inhibitors” (Merck Canada Inc., priority 2006, dated 2011).
